≈ marks a conversion by molar mass, not a printed value.
Key:
E. faecium ATCC 6057 = assay: Antibacterial activity: MIC/MBC determination and disc-diffusion; assay type: cell-based; conditions: Enterococcus faecium, ATCC6057; E. faecium ATCC 6057; read-out: MIC
Experimental: (§1) Direct antimicrobial activity was determined against the following standard strains: (1) Gram-positive cocci: methicillin-sensitive Staphylococcus aureus ATCC 6538P (MSSA), methicillin-resistant S. aureus subsp. aureus ATCC 43300 (MRSA), S. epidermidis ATCC 12228, Enterococcus faecium ATCC 6057, E. faecalis ATCC 29212, Bacillus subtilis ATCC 6633; (2) Gram-negative bacteria from Enterobacteriales order: Klebsiella pneumoniae ATCC 13883, Escherichia coli ATCC 25922, Enterobacter cloacae DSM 6234, Proteus mirabilis ATCC 12453, Serratia marcescens ATCC 13880; (3) Gram-negative non-fermentative rods: Acinetobacter baumannii ATCC 19606, Pseudomonas aeruginosa ATCC 27853, Stenotrophomonas maltophilia ATCC 12714, S. maltophilia ATCC 13637, Burkholderia cepacia ATCC 25416, Bordetella bronchiseptica ATCC 4617; (4) yeasts: Candida albicans ATCC 90028, C. krusei ATCC 6258, C. parapsilosis ATCC 22019, C. tropicalis (Castellani) Berkhout ATCC 750, C. tropicalis IBA 171, C. guilliermondii IBA 155, and Saccharomyces cerevisiae ATCC 9763. Moreover, 5 clinical strains of methicillin-resistant S. aureus were also included: NMI 664 K, NMI 1576 K, NMI 1712 K, NMI 1991 K, and NMI 2541 K. All strains were stored at −80 °C. Prior to testing, each bacterial strain was subcultured twice on tryptic soy agar TSA (bioMerieux) medium and yeast strains on Sabouraud dextrose agar (bioMerieux) for 24–48 h at 30 °C to ensure viability. The antimicrobial activity was evaluated as previously described[26] by the disc-diffusion method and the MIC determination assays according to the EUCAST (ref. [71] and [72]) and CLSI (ref. [53] and [73]) recommendations. Assessment of bactericidal (MBC) and fungicidal (MFC) activities was performed according to the CLSI recommendations.[54,74] The following reference agents were used: fluconazole (in the case of fungi), linezolid (for Gram-positive bacteria), and nitrofurantoin (for Gram-negative rods). The new benzosiloxaboroles were dissolved in DMSO (Sigma).

[1] = tested on: S. aureus ATCC 43300 MRSA; assay: as above; assay type: cell-based; conditions: Staphylococcus aureus, S. aureus ATCC 43300 MRSA; for MBC: read-out: MBC (first MBC where Eagle effect); for MIC: read-out: MIC
Experimental: as §1

E. coli ATCC 25922 = assay: Antibacterial activity: MIC/MBC, MIC with PAβN, disc-diffusion; assay type: cell-based, Escherichia coli; conditions: E. coli ATCC 25922; for MIC / MBC: Escherichia coli, ATCC25922; for MIC: read-out: MIC; for diameter of inhibition zone: (-) = zone not observed, paper discs 9 mm
Experimental: as §1, with “The following reference agents were used: fluconazole (in the case of fungi), linezolid (for Gram-positive bacteria), and nitrofurantoin (for Gram-negative rods).” left out
(§2) Considering that the MDR efflux pumps often contribute to Gram-negative rod resistance, the MIC values of studied agents, with or without the pump inhibitor, PAβN (20 μg mL^−1) (Sigma), were determined.[75] The MIC was determined using Mueller–Hinton II broth medium (MHB) (Becton Dickinson) by the broth microdilution method, according to the CLSI guideliness.[53] To minimize the influence of PAβN on the destabilization of bacterial cell covers, the tests were conducted in the presence of 1 mM MgSO4 (Sigma).[76] At least a 4-fold reduction in the MIC value after the addition of PAβN was considered significant.[56,77]

E. cloacae DSM 6234 = assay: as above; assay type: cell-based, Enterobacter cloacae; conditions: E. cloacae DSM 6234; for MIC: Enterobacter cloacae, DSM6234, read-out: MIC; for -fold reduction of MIC in the presence of PAβN: PAβN 20 μg mL^−1, MHB + 1 mM MgSO4
Experimental: as §1, with “The following reference agents were used: fluconazole (in the case of fungi), linezolid (for Gram-positive bacteria), and nitrofurantoin (for Gram-negative rods).” left out
as §2

[2] = tested on: S. maltophilia ATCC 12714; assay: as above; assay type: cell-based, Stenotrophomonas maltophilia; conditions: S. maltophilia ATCC 12714; for MIC: read-out: MIC; for diameter of inhibition zone: (-) = zone not observed, paper discs 9 mm
Experimental: as §1, with “The following reference agents were used: fluconazole (in the case of fungi), linezolid (for Gram-positive bacteria), and nitrofurantoin (for Gram-negative rods).” left out
as §2

[3] = tested on: S. maltophilia ATCC 13637; assay: as above; assay type: cell-based, Stenotrophomonas maltophilia; conditions: S. maltophilia ATCC 13637; for MIC / MBC: Stenotrophomonas maltophilia, ATCC13637; for MIC: read-out: MIC; for diameter of inhibition zone: (-) = zone not observed, paper discs 9 mm
Experimental: as §1, with “The following reference agents were used: fluconazole (in the case of fungi), linezolid (for Gram-positive bacteria), and nitrofurantoin (for Gram-negative rods).” left out
as §2

B. cepacia ATCC 25416 = assay: Antibacterial activity: MIC/MBC, disc-diffusion; assay type: cell-based, Burkholderia cepacia; conditions: Burkholderia cepacia, ATCC25416; B. cepacia ATCC 25416; read-out: MIC
Experimental: as §1, with “The following reference agents were used: fluconazole (in the case of fungi), linezolid (for Gram-positive bacteria), and nitrofurantoin (for Gram-negative rods).” left out
as §2

[4] = tested on: B. bronchiseptica ATCC 4617; assay: Antibacterial activity: MIC/MBC, disc-diffusion; assay type: cell-based, Bordetella bronchiseptica; conditions: B. bronchiseptica ATCC 4617; for MIC / MBC: Bordetella bronchiseptica, ATCC4617; for MIC: read-out: MIC; for diameter of inhibition zone: (-) = zone not observed, paper discs 9 mm
Experimental: as §1, with “The following reference agents were used: fluconazole (in the case of fungi), linezolid (for Gram-positive bacteria), and nitrofurantoin (for Gram-negative rods).” left out
as §2

C. krusei ATCC 6258 = assay: Antifungal activity: MIC/MFC, disc-diffusion; assay type: cell-based; conditions: for MIC: read-out: MIC; for diameter of inhibition zone: (-) = zone not observed, paper discs 9 mm
Experimental: as §1, with “The following reference agents were used: fluconazole (in the case of fungi), linezolid (for Gram-positive bacteria), and nitrofurantoin (for Gram-negative rods).” left out

S. cerevisiae ATCC 9763 = assay: Antifungal activity: MIC/MFC, disc-diffusion; assay type: cell-based, Saccharomyces cerevisiae; conditions: for MIC: Saccharomyces cerevisiae, ATCC9763, read-out: MIC; for diameter of inhibition zone: S. cerevisiae ATCC 9763, (-) = zone not observed, paper discs 9 mm
Experimental: as §1

[5] = Stenotrophomonas maltophilia, ATCC12714
[6] = PAβN 20 μg mL^−1, MHB + 1 mM MgSO4

SMILES	MIC (E. faecium ATCC 6057) [µg/mL]	MBC [1] [µg/mL]	MIC [1] [µg/mL]	MIC (E. coli ATCC 25922) [µg/mL]	MIC (E. cloacae DSM 6234) [µg/mL]	MIC [2, 5] [µg/mL]	MIC [3] [µg/mL]	MIC (B. cepacia ATCC 25416) [µg/mL]	MIC [4] [µg/mL]	MIC (C. krusei ATCC 6258; Pichia kudriavzevii, ATCC6258) [µg/mL]	MIC (S. cerevisiae ATCC 9763) [µg/mL]	diameter of inhibition zone [3] [mm]	MBC [3] [µg/mL]	diameter of inhibition zone [4] [mm]	further results
C[Si]1(C)OB(O)c2cc(F)c(SCCC(=O)Nc3ncccn3)c(F)c21 [Compound 9, 3-((5,7-Difluoro-3-hydroxy-1,1-dimethyl-1,3-dihydrobenzo[c][1,2,5]oxasilaborol-6-yl)thio)-N-(pyrimidin-2-yl)propanamide]	200 (≈ 506 µM)	400 (≈ 1010 µM)	50 (≈ 126 µM)	> 400	> 400	> 400	> 400	> 400	> 400	> 400	> 400	–	–	–	–
C[Si]1(C)OB(O)c2cc(F)c(SCCC(=O)Nc3cnccn3)c(F)c21 [Compound 10, 3-((5,7-Difluoro-3-hydroxy-1,1-dimethyl-1,3-dihydrobenzo[c][1,2,5]oxasilaborol-6-yl)thio)-N-(pyrazin-2-yl)propanamide]	100 (≈ 253 µM)	400 (≈ 1010 µM)	50 (≈ 126 µM)	> 400	> 400	> 400	> 400	> 400	> 400	> 400	> 400	–	–	–	–
Cc1cc(NC(=O)CCSc2c(F)cc3c(c2F)[Si](C)(C)OB3O)no1 [Compound 11, 3-((5,7-Difluoro-3-hydroxy-1,1-dimethyl-1,3-dihydrobenzo[c][1,2,5]oxasilaborol-6-yl)thio)-N-(5-methylisoxazol-3-yl)propanamide]	200 (≈ 502 µM)	400 (≈ 1000 µM)	50 (≈ 126 µM)	> 400	> 400	> 400	> 400	> 400	> 400	> 400	> 400	–	–	–	–
C[Si]1(C)OB(O)c2cc(F)c(SC3CC(=O)NC3=O)c(F)c21 (centres unmarked) [Compound 12, 3-((5,7-Difluoro-3-hydroxy-1,1-dimethyl-1,3-dihydrobenzo[c][1,2,5]oxasilaborol-6-yl)thio)pyrrolidine-2,5-dione]	12.5 (≈ 36.4 µM)	200 (≈ 583 µM)	12.5 (≈ 36.4 µM)	50 (≈ 146 µM)	> 400	200 (≈ 583 µM)	50 (≈ 146 µM)	> 400	12.5 (≈ 36.4 µM)	> 400	> 400	13	100 (≈ 291 µM)	25	diameter of inhibition zone (E. coli ATCC 25922): 17 mm; MBC (E. coli ATCC 25922): 200 µg/mL (≈ 583 µM); -fold reduction of MIC in the presence of PAβN (E. cloacae DSM 6234): 8 -fold; diameter of inhibition zone [2]: 13 mm; -fold reduction of MIC in the presence of PAβN [2, 6]: 2 -fold; MBC [4]: 50 µg/mL (≈ 146 µM)
C[Si]1(C)OB(O)c2ccc(SC3CC(=O)NC3=O)c(F)c21 (centres unmarked) [Compound 13, 3-((7-Fluoro-3-hydroxy-1,1-dimethyl-1,3-dihydrobenzo[c][1,2,5]oxasilaborol-6-yl)thio)pyrrolidine-2,5-dione]	12.5 (≈ 38.4 µM)	–	25 (≈ 76.9 µM)	25 (≈ 76.9 µM)	400 (≈ 1230 µM)	50 (≈ 154 µM)	25 (≈ 76.9 µM)	> 400	12.5 (≈ 38.4 µM)	> 400	> 400	19	50 (≈ 154 µM)	26	diameter of inhibition zone (E. coli ATCC 25922): 19 mm; MBC (E. coli ATCC 25922): 50 µg/mL (≈ 154 µM); -fold reduction of MIC in the presence of PAβN (E. cloacae DSM 6234): 4 -fold; diameter of inhibition zone [2]: 17 mm; MBC [2, 5]: 200 µg/mL (≈ 615 µM); MBC [4]: 25 µg/mL (≈ 76.9 µM)
C[Si]1(C)OB(O)c2cc(F)c(SC3CC(=O)N(c4ccc(F)cc4)C3=O)c(F)c21 (centres unmarked) [Compound 14, 3-((5,7-Difluoro-3-hydroxy-1,1-dimethyl-1,3-dihydrobenzo[c][1,2,5]oxasilaborol-6-yl)thio)-1-(4-fluorophenyl)pyrrolidine-2,5-dione]	50 (≈ 114 µM)	–	50 (≈ 114 µM)	> 200	> 200	100 (≈ 229 µM)	25 (≈ 57.2 µM)	> 200	200 (≈ 457 µM)	12.5 (≈ 28.6 µM)	50 (≈ 114 µM)	11	100 (≈ 229 µM)	11	-fold reduction of MIC in the presence of PAβN (E. coli ATCC 25922; [6]): 2 -fold; diameter of inhibition zone (C. krusei ATCC 6258; C. krusei ATCC 6258): 30 mm; MFC (C. krusei ATCC 6258; Pichia kudriavzevii, ATCC6258, C. krusei ATCC 6258): 100 µg/mL (≈ 229 µM); diameter of inhibition zone (S. cerevisiae ATCC 9763): 30 mm
C[Si]1(C)OB(O)c2ccc(SC3CC(=O)N(c4ccc(F)cc4)C3=O)c(F)c21 (centres unmarked) [Compound 15, 3-((7-Fluoro-3-hydroxy-1,1-dimethyl-1,3-dihydrobenzo[c][1,2,5]oxasilaborol-6-yl)thio)-1-(4-fluorophenyl)pyrrolidine-2,5-dione]	25 (≈ 59.6 µM)	–	25 (≈ 59.6 µM)	> 200	> 200	> 200	> 200	> 200	> 200	25 (≈ 59.6 µM)	200 (≈ 477 µM)	–	–	–	diameter of inhibition zone (C. krusei ATCC 6258; C. krusei ATCC 6258): 29 mm; diameter of inhibition zone (S. cerevisiae ATCC 9763): 26 mm
